Measured values from ChEMBL document CHEMBL1201862, “PubChem BioAssay data set” (2004).
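Growth conditions: 96-well plates. Treatment: test compound, 48 hours, 5 concentrations. Analysis: linear interpolation between bracketing concentrations; unreached endpoints set to highest concentration. Here, GI50 denotes the concentration required for 50% inhibition of growth.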 The source made the active and inactive calls. No stated cut-off is given here; in the data, active = GI50 up to about 1.1 µM and inactive = higher.

Experiments:
Experiment in all cases: NCI-60 cell line screen, 48 h
K562 = tested on: K562
TK-10 = tested on: TK-10
OVCAR-3 = tested on: OVCAR-3
EKVX = tested on: EKVX
UO-31 = tested on: UO-31
LOX IMVI = tested on: LOX IMVI
HCC 2998 = tested on: HCC 2998
SF-539 = tested on: SF-539
COLO 205 = tested on: COLO 205
MOLT-4 = tested on: MOLT-4
KM12 = tested on: KM12
OVCAR-8 = tested on: OVCAR-8
NCI-H522 = tested on: NCI-H522
OVCAR-4 = tested on: OVCAR-4
SK-MEL-2 = tested on: SK-MEL-2
NCI-H226 = tested on: NCI-H226
PC-3 = tested on: PC-3
SW-620 = tested on: SW-620
MDA-N = tested on: MDA-N
MDA-MB-231 = tested on: MDA-MB-231

Measured: GI50

CCOC(=O)C(CCCNC(=O)OC(C)(C)C)N(Cc1ccc(OC)cc1OC)C(=O)CC(=O)CP(=O)(OCC)OCC (stereo unspecified)
inactive: K562 > 100 µM | TK-10 > 100 µM | OVCAR-3 > 100 µM | EKVX > 100 µM | UO-31 > 100 µM | LOX IMVI > 100 µM | HCC 2998 > 100 µM | SF-539 > 100 µM | COLO 205 > 100 µM | MOLT-4 56.5 µM | KM12 > 100 µM | OVCAR-8 > 100 µM | NCI-H522 29 µM | OVCAR-4 > 100 µM | SK-MEL-2 > 100 µM | NCI-H226 > 100 µM

Cc1ccc(C)c(NC(=O)C(=O)C(c2cnc3ccc([N+](=O)[O-])cc3n2)[N+](=O)[O-])c1 (stereo unspecified)
inactive: K562 41.4 µM | TK-10 27.3 µM | OVCAR-3 68.1 µM | PC-3 52.1 µM | EKVX 30.8 µM | SW-620 30 µM | UO-31 29.2 µM | HCC 2998 55.8 µM | SF-539 > 100 µM | COLO 205 60.8 µM | MOLT-4 25.9 µM | KM12 20.1 µM | OVCAR-8 27 µM | NCI-H522 21.1 µM | MDA-N 70.6 µM | OVCAR-4 17.3 µM | SK-MEL-2 > 100 µM | NCI-H226 34.1 µM

O=C(/C=N/O)c1c(-c2ccccc2)[nH]c(-c2ccccc2)c1-c1ccccc1
inactive: K562 14.1 µM | TK-10 21.3 µM | OVCAR-3 13.1 µM | EKVX 3.71 µM | SW-620 19.8 µM | UO-31 14.3 µM | LOX IMVI 10.8 µM | HCC 2998 34 µM | SF-539 13.2 µM | COLO 205 17.2 µM | MOLT-4 2.37 µM | KM12 13.6 µM | MDA-MB-231 13.3 µM | NCI-H522 13.8 µM | OVCAR-4 13.6 µM | SK-MEL-2 11.1 µM | NCI-H226 26.2 µM

O=c1c2cc3c(cc2c2cccc4c2n1CCC4)OCO3
inactive: K562 45.8 µM | TK-10 27.1 µM | OVCAR-3 61.2 µM | EKVX 33 µM | SW-620 29.4 µM | UO-31 22.4 µM | LOX IMVI 42.9 µM | HCC 2998 26.6 µM | SF-539 30.4 µM | COLO 205 26.3 µM | MOLT-4 24.6 µM | KM12 33.3 µM | OVCAR-8 48.1 µM | NCI-H522 16.2 µM | OVCAR-4 88.9 µM | SK-MEL-2 > 100 µM | NCI-H226 > 100 µM

O=C(NCCN1CCCCC1)c1cccc(I)c1
inactive: K562 > 100 µM | TK-10 > 100 µM | OVCAR-3 > 100 µM | PC-3 > 100 µM | EKVX > 100 µM | SW-620 > 100 µM | UO-31 > 100 µM | LOX IMVI > 100 µM | HCC 2998 > 100 µM | SF-539 > 100 µM | MOLT-4 > 100 µM | KM12 > 100 µM | OVCAR-8 > 100 µM | OVCAR-4 > 100 µM | NCI-H226 > 100 µM

COc1ccc(NC(=O)c2oc3cc(O)ccc3c(=O)c2C)c([N+](=O)[O-])c1
inactive: K562 > 100 µM | TK-10 > 100 µM | OVCAR-3 > 100 µM | EKVX > 100 µM | SW-620 > 100 µM | UO-31 > 100 µM | LOX IMVI > 100 µM | HCC 2998 > 100 µM | SF-539 > 100 µM | COLO 205 > 100 µM | MOLT-4 > 100 µM | KM12 > 100 µM | OVCAR-8 > 100 µM | NCI-H522 > 100 µM | OVCAR-4 > 100 µM | SK-MEL-2 > 100 µM | NCI-H226 > 100 µM

Cc1c(CC/C(=N\Nc2ccc([N+](=O)[O-])cc2[N+](=O)[O-])c2ccccc2)c2ccccc2n1C
inactive: K562 27.4 µM | TK-10 > 100 µM | OVCAR-3 > 100 µM | EKVX > 100 µM | SW-620 > 100 µM | UO-31 > 86.9 µM | LOX IMVI > 100 µM | HCC 2998 > 100 µM | SF-539 > 100 µM | COLO 205 > 100 µM | MOLT-4 > 43.2 µM | KM12 > 100 µM | OVCAR-8 > 100 µM | NCI-H522 > 100 µM | OVCAR-4 > 100 µM | SK-MEL-2 > 100 µM | NCI-H226 > 100 µM

CCCCCCCCCCCCCC(=O)NCC(OCC)OCC
inactive: TK-10 > 100 µM | OVCAR-3 > 100 µM | EKVX > 100 µM | SW-620 > 100 µM | UO-31 > 100 µM | LOX IMVI > 100 µM | HCC 2998 > 100 µM | SF-539 > 100 µM | COLO 205 > 100 µM | KM12 > 100 µM | OVCAR-8 > 100 µM | NCI-H522 > 100 µM | OVCAR-4 > 100 µM | SK-MEL-2 > 100 µM | NCI-H226 > 100 µM

CCC(=O)Nc1ccc(NS(=O)(=O)c2ccc(Cl)cc2)cc1
inactive: K562 29.9 µM | OVCAR-3 43.5 µM | PC-3 > 100 µM | EKVX 39.8 µM | SW-620 > 100 µM | UO-31 > 100 µM | LOX IMVI > 100 µM | HCC 2998 > 100 µM | SF-539 > 100 µM | COLO 205 > 100 µM | MOLT-4 34.5 µM | KM12 > 100 µM | OVCAR-8 > 100 µM | NCI-H522 > 100 µM | MDA-N > 100 µM | OVCAR-4 53.6 µM | SK-MEL-2 > 100 µM | NCI-H226 19.5 µM

N#CC(C(=N/NC(N)=S)/C(=N\NC(N)=S)C(C#N)c1ccccc1)c1ccccc1 (stereo unspecified)
inactive: K562 > 10 µM | TK-10 > 10 µM | OVCAR-3 > 10 µM | EKVX > 10 µM | SW-620 > 10 µM | UO-31 > 10 µM | LOX IMVI > 10 µM | HCC 2998 > 10 µM | SF-539 > 10 µM | COLO 205 > 10 µM | MOLT-4 > 10 µM | KM12 > 10 µM | OVCAR-8 > 10 µM | NCI-H522 > 10 µM | OVCAR-4 > 10 µM | SK-MEL-2 > 10 µM | NCI-H226 > 10 µM

Cc1cc(Br)ccc1NC1=CC(=O)C(=O)c2ccccc21
inactive: K562 51.4 µM | TK-10 99.8 µM | OVCAR-3 35 µM | EKVX > 100 µM | SW-620 29.9 µM | UO-31 94.6 µM | LOX IMVI 21.4 µM | HCC 2998 62.1 µM | SF-539 74.8 µM | COLO 205 31.6 µM | MOLT-4 39.4 µM | KM12 38.5 µM | OVCAR-8 42.2 µM | NCI-H522 30.8 µM | OVCAR-4 9.08 µM | SK-MEL-2 23.6 µM | NCI-H226 39.8 µM

CCOC(=O)NNC(=O)NC12CC3CC(CC(C3)C1)C2
inactive: K562 > 100 µM | TK-10 > 100 µM | OVCAR-3 > 100 µM | EKVX > 100 µM | SW-620 > 100 µM | UO-31 > 100 µM | LOX IMVI > 100 µM | HCC 2998 > 100 µM | SF-539 > 100 µM | COLO 205 > 100 µM | MOLT-4 > 100 µM | KM12 > 100 µM | OVCAR-8 > 100 µM | NCI-H522 > 100 µM | OVCAR-4 > 100 µM | SK-MEL-2 > 100 µM | NCI-H226 > 100 µM

COc1cc(/C=C2\CCc3ccccc3C2=O)cc(OC)c1OC
inactive: K562 8.43 µM | TK-10 17.8 µM | OVCAR-3 15.8 µM | EKVX 17.9 µM | SW-620 16.6 µM | UO-31 16.8 µM | LOX IMVI 11.9 µM | HCC 2998 18 µM | SF-539 16.9 µM | COLO 205 17 µM | MOLT-4 9.4 µM | KM12 13.6 µM | OVCAR-8 16.2 µM | NCI-H522 14.8 µM | OVCAR-4 23.9 µM | SK-MEL-2 15.8 µM | NCI-H226 18.6 µM

CCCCCCOc1ccc(NC2=C(Cl)C(=O)c3ncccc3C2=O)cc1
inactive: K562 2.59 µM | TK-10 4.31 µM | OVCAR-3 2.1 µM | PC-3 1.51 µM | EKVX > 10 µM | SW-620 1.83 µM | UO-31 1.39 µM | LOX IMVI 1.61 µM | SF-539 1.72 µM | MOLT-4 2.24 µM | KM12 1.33 µM | OVCAR-8 3.43 µM | MDA-N 1.52 µM | NCI-H226 5.61 µM

O=C(CCc1nnc2s/c(=C\c3ccc(Cl)cc3Cl)c(=O)n12)Nc1cc(Cl)c(Cl)cc1Cl
inactive: K562 > 10 µM | TK-10 55.7 µM | OVCAR-3 > 10 µM | EKVX > 10 µM | SW-620 > 10 µM | UO-31 > 10 µM | LOX IMVI > 10 µM | HCC 2998 > 100 µM | SF-539 > 10 µM | COLO 205 > 10 µM | MOLT-4 > 10 µM | KM12 > 10 µM | OVCAR-8 > 10 µM | NCI-H522 2.31 µM | OVCAR-4 > 10 µM | SK-MEL-2 > 10 µM | NCI-H226 > 10 µM

CSc1ccc2c(cc1=O)[C@@H](NC(=O)c1ccc(F)cc1)CCc1cc(O)c(O)c(O)c1-2
inactive: K562 64.3 µM | TK-10 > 100 µM | OVCAR-3 > 100 µM | EKVX > 100 µM | SW-620 > 100 µM | UO-31 > 100 µM | LOX IMVI > 100 µM | HCC 2998 > 100 µM | SF-539 > 100 µM | COLO 205 > 100 µM | MOLT-4 > 100 µM | KM12 > 100 µM | OVCAR-8 > 100 µM | NCI-H522 > 100 µM | OVCAR-4 > 100 µM | SK-MEL-2 > 100 µM | NCI-H226 > 100 µM
